Here are results for 13 molecules from patent US8299048B2, “Hexahydrocyclopentyl[f]indazole sulfonamides and derivatives thereof as selective glucocorticoid receptor modulators” (Merck Sharp & Dohme Corp., priority 2008, dated 2012).

Assay [1] deals with T1, human GR (Homo sapiens, UniProt P04150).
T1 sequence (P04150 1-777): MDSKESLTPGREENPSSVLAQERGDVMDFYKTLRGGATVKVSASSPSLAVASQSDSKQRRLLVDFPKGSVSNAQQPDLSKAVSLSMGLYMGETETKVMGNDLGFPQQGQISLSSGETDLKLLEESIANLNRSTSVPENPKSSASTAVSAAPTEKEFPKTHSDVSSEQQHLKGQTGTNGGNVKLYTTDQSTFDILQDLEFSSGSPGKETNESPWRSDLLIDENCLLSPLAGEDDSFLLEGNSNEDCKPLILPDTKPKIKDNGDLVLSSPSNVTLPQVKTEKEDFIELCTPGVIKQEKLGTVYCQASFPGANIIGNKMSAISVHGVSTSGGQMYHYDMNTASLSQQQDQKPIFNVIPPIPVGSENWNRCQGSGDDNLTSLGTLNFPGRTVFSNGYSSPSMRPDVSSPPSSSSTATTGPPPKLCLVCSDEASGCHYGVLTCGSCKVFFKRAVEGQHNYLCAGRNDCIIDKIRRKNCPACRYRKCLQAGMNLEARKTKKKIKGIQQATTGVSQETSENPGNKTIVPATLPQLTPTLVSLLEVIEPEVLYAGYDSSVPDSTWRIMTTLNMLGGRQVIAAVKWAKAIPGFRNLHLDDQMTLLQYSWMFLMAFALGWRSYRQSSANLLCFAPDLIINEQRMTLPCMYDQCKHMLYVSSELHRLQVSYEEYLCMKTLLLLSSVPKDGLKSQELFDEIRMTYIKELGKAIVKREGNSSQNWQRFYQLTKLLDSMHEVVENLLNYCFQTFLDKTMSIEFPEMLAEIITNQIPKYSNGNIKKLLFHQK
Nature of the assay: Transrepression Assay (GITAR), TNFα-β-lactamase reporter in U937 cells. The class given is cell-based. Details: U937 cells contain an endogenous glucocorticoid receptor (GR); endogenous in cells; host or cells: U937 cells stably transfected with the TNF-alpha promoter/beta-lactamase reporter. The conditions noted are these: for GITAR > GRAMM % SEP: GITAR Emax minus GRAMMER Emax; for EC50: U937 cells, inflection point, read-out: Transrepression U937 Cells GITAR IP. The gist of the method: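 U937 cells with endogenous GR, stably carrying TNFα promoter–β-lactamase, preincubated with compound 30–45 min at 37° C, then stimulated with PMA 5 ng/ml and LPS 100 ng/ml (final) ~18 hr. Read-out via CCF2-AM loading; repression by 100 nM dexamethasone set as 100%.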

Assay [2] deals with T1, human GR. Nature of the assay: Trans-Activation Modulation of Glucocorticoid Receptor (GRAMMER), MMTV-LUC reporter, agonist mode. The format is cell-based. Also noted: endogenous in cells. The conditions noted are these: for Emax: A549, A549 cells, maximum activity, read-out: Transactivation A549 Cells GRAMMER Emax; for EC50: A549 cells, inflection point, read-out: Transactivation A549 Cells GRAMMER IP. The gist of the method:
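Readout is luciferase from a modified MMTV LTR promoter after 24 h compound exposure alongside 10 nM dexamethasone (100% activity reference), DMSO ≤1%.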

The mark [3] stands for this setting: U-937, U937 cells, maximum activity, read-out: Transrepression U937 Cells GITAR Emax.
Where [4] appears, read: U-937, activity repressed by 100 nM dexamethasone alone set as 100%, read-out: maximal activity in the transrepression (GITAR) assay.

As for `COC(=O)c1ccccc1S(=O)(=O)N(C[C@H]1CCC2=Cc3c(cnn3-c3ccc(F)cc3)C[C@@]21C)C[C@H](C)O` [Example 187, methyl 2-({{[(4αR,5S)-1-(4-fluorophenyl)-4α-methyl-1,4,4α,5,6,7-hexahydrocyclopenta[f]indazol-5-yl]methyl}[(2S)-2-hydroxypropyl]amino}sulfonyl)benzoate], the “GITAR > GRAMM % SEP” value on human GR [1] stood at 35.6%. In addition, the EC50 worked out at 392 nM on human GR [1] and 357 nM on human GR [2]. Further, the Emax on human GR [1] (setting [3]) was 71.5%; at human GR [1] (setting [4]), above 5%; at human GR [2] it was 35.8%.

On to `COC(=O)c1ccccc1CS(=O)(=O)N(CCc1ccccc1F)C[C@H]1CCC2=Cc3c(cnn3-c3ccc(F)cc3)C[C@@]21C` [Example 188, methyl 2-{[([2-(2-fluorophenyl)ethyl]{[(4αR,5S)-1-(4-fluorophenyl)-4α-methyl-1,4,4α,5,6,7-hexahydrocyclopenta[f]indazol-5-yl]methyl}amino)sulfonyl]methyl}benzoate], for which, at human GR [1], the “GITAR > GRAMM % SEP” value amounted to 30.1%. Moreover, the EC50 came to 190 nM on human GR [1] and 236 nM at human GR [2]. The Emax at human GR [1] (setting [3]) is 60.5%; at human GR [1] (setting [4]), above 5%; on human GR [2] it was 30.4%.

In the case of `COC(=O)c1ccccc1S(=O)(=O)N(CCc1ccccc1F)C[C@H]1CCC2=Cc3c(cnn3-c3ccc(F)cc3)C[C@@]21C` [Example 189, methyl 2-[([2-(2-fluorophenyl)ethyl]{[(4αR,5S)-1-(4-fluorophenyl)-4α-methyl-1,4,4α,5,6,7-hexahydrocyclopenta[f]indazol-5-yl]methyl}amino)sulfonyl]benzoate], the “GITAR > GRAMM % SEP” value at human GR [1] was 15.7%. Further, the results for the EC50 on human GR [1] and at human GR [2] were 189 nM and 152 nM, respectively. Further, the Emax was 81% on human GR [1] (setting [3]), above 5% on human GR [1] (setting [4]) and 65.3% on human GR [2].

With `C[C@]12Cc3cnn(-c4ccc(F)cc4)c3C=C1CC[C@@H]2CN(CCc1ccccc1F)S(=O)(=O)Cc1ccccc1C(N)=O` [Example 190, 2-{[([2-(2-fluorophenyl)ethyl]{[(4αR,5S)-1-(4-fluorophenyl)-4α-methyl-1,4,4α,5,6,7-hexahydrocyclopenta[f]indazol-5-yl]methyl}amino)sulfonyl]methyl}benzamide], the “GITAR > GRAMM % SEP” value on human GR [1] is on record as 12.4%. Besides, the EC50 at human GR [1] stood at 388 nM; on human GR [2] it was 424 nM. For the same molecule, the Emax was 77.4% on human GR [1] (setting [3]), above 5% at human GR [1] (setting [4]) and 65.1% on human GR [2].

As for `C[C@]12Cc3cnn(-c4ccc(F)cc4)c3C=C1CC[C@@H]2CN(CC1CCCO1)S(=O)(=O)c1ccc(C(N)=O)cc1` (stereo partly drawn) [Example 191, 4-{[{[(4αR,5S)-1-(4-fluorophenyl)-4α-methyl-1,4,4α,5,6,7-hexahydrocyclopenta[f]indazol-5-yl]methyl}(tetrahydrofuran-2-ylmethyl)amino]sulfonyl}benzamide], the “GITAR > GRAMM % SEP” value at human GR [1] is 10.1%. In addition, the EC50 turned out to be 441 nM at human GR [1] and 338 nM at human GR [2]. For the same molecule, the Emax at human GR [1] (setting [3]) is 37.2%; on human GR [1] (setting [4]), above 5%; on human GR [2], 27.1%.

Regarding `C[C@]12Cc3cnn(-c4ccc(F)cc4)c3C=C1CC[C@@H]2CN(Cc1ccccc1F)S(=O)(=O)c1cccc(C(N)=O)c1` [Example 192, 3-[((2-fluorobenzyl){[(4αR,5S)-1-(4-fluorophenyl)-4α-methyl-1,4,4α,5,6,7-hexahydrocyclopenta[f]indazol-5-yl]methyl}amino)sulfonyl]benzamide], the “GITAR > GRAMM % SEP” value at human GR [1] worked out at 23.2%. The EC50 at human GR [1] is 2910 nM; at human GR [2], 170 nM. The Emax on human GR [1] (setting [3]) is 27.5%; on human GR [1] (setting [4]), above 5%; on human GR [2], 4.3%.

Take `C[C@]12Cc3cnn(-c4ccc(F)cc4)c3C=C1CC[C@@H]2CN(CCCc1ccccc1)S(=O)(=O)CC(F)(F)F` [Example 193, 2,2,2-trifluoro-N-{[(4αR,5S)-1-(4-fluorophenyl)-4α-methyl-1,4,4α,5,6,7-hexahydrocyclopenta[f]indazol-5-yl]methyl}-N-(3-phenylpropyl)ethanesulfonamide]: the “GITAR > GRAMM % SEP” value at human GR [1] turned out to be 18.6%. For the same molecule, the EC50 on human GR [1] is 170 nM; at human GR [2], 303 nM. Also, the Emax is 74% on human GR [1] (setting [3]), above 5% at human GR [1] (setting [4]) and 55.4% at human GR [2].

As to `Cc1noc(C)c1S(=O)(=O)N(CCCc1ccccc1)C[C@H]1CCC2=Cc3c(cnn3-c3ccc(F)cc3)C[C@@]21C` [Example 194, N-{[(4αR,5S)-1-(4-fluorophenyl)-4α-methyl-1,4,4α,5,6,7-hexahydrocyclopenta[f]indazol-5-yl]methyl}-3,5-dimethyl-N-(3-phenylpropyl)isoxazole-4-sulfonamide], the “GITAR > GRAMM % SEP” value at human GR [1] was 14.4%. Also, the EC50 at human GR [1] worked out at 291 nM; on human GR [2], 517 nM. Besides, the values for the Emax on human GR [1] (setting [3]), on human GR [1] (setting [4]) and on human GR [2] were 56.2%, above 5% and 41.9%, respectively.

For the molecule `C[C@]12Cc3cnn(-c4ccc(F)cc4)c3C=C1CC[C@@H]2CN(CCCc1ccccc1)S(=O)(=O)c1ccccc1F` [Example 195, 2-fluoro-N-{[(4αR,5S)-1-(4-fluorophenyl)-4α-methyl-1,4,4α,5,6,7-hexahydrocyclopenta[f]indazol-5-yl]methyl}-N-(3-phenylpropyl)benzenesulfonamide], the “GITAR > GRAMM % SEP” value on human GR [1] amounted to 17.1%. Further, the EC50 at human GR [1] came to 486 nM; at human GR [2], 542 nM. Also, the Emax is 30% on human GR [1] (setting [3]), above 5% at human GR [1] (setting [4]) and 12.9% on human GR [2].

With `C[C@]12Cc3cnn(-c4ccc(F)cc4)c3C=C1CC[C@@H]2CN(CCc1ccccn1)S(=O)(=O)Cc1ccccc1C(N)=O` [Example 196, 2-({[{[(4αR,5S)-1-(4-fluorophenyl)-4α-methyl-1,4,4α,5,6,7-hexahydrocyclopenta[f]indazol-5-yl]methyl}(2-pyridin-2-ylethyl)amino]sulfonyl}methyl)benzamide], the “GITAR > GRAMM % SEP” value on human GR [1] came out at 3.7%. Moreover, the EC50 at human GR [1] is 387 nM; at human GR [2], 552 nM. Besides, the Emax on human GR [1] (setting [3]) is 40.3%; on human GR [1] (setting [4]), above 5%; on human GR [2], 36.6%.

Consider `CC([C@H]1CCC2=Cc3c(cnn3-c3ccc(F)cc3)C[C@@]21C)N(CCc1ccccn1)S(=O)(=O)Cc1cccnc1` (stereo partly drawn) [Example 197, N-{1-[(4αR)-1-(4-fluorophenyl)-4α-methyl-1,4,4α,5,6,7-hexahydrocyclopenta[f]indazol-5-yl]ethyl}-1-pyridin-3-yl-N-(2-pyridin-2-ylethyl)methanesulfonamide], for which the “GITAR > GRAMM % SEP” value at human GR [1] is 1.8%. The EC50 was 1040 nM at human GR [1] and 769 nM at human GR [2]. Besides, the Emax on human GR [1] (setting [3]) was 45.5%; at human GR [1] (setting [4]) it was above 5%; at human GR [2] it was 43.7%.

As for `C[C@]12Cc3cnn(-c4ccc(F)cc4)c3C=C1CC[C@@H]2CN(CCO)S(=O)(=O)Cc1ccccc1C(N)=O` [Example 198, 2-({[{[(4αR,5S)-1-(4-fluorophenyl)-4α-methyl-1,4,4α,5,6,7-hexahydrocyclopenta[f]indazol-5-yl]methyl}(2-hydroxyethyl)amino]sulfonyl}methyl)benzamide], the “GITAR > GRAMM % SEP” value on human GR [1] worked out at 7.3%. Besides, the EC50 is 1150 nM at human GR [1] and 1230 nM on human GR [2]. In addition, the Emax at human GR [1] (setting [3]) is 15.5%; on human GR [1] (setting [4]) it was above 5%; on human GR [2], 8.2%.

For the molecule `CC(C)(O)CN(C[C@H]1CCC2=Cc3c(cnn3-c3ccc(F)cc3)C[C@@]21C)S(=O)(=O)c1ccccc1F` [Example 199, 2-fluoro-N-{[(4αR,5S)-1-(4-fluorophenyl)-4α-methyl-1,4,4α,5,6,7-hexahydrocyclopenta[f]indazol-5-yl]methyl}-N-(2-hydroxy-2-methylpropyl)benzenesulfonamide], the “GITAR > GRAMM % SEP” value at human GR [1] is 22.2%. For the same molecule, the EC50 on human GR [1] is 506 nM; on human GR [2], 96.8 nM. The Emax was 80.8% on human GR [1] (setting [3]), above 5% at human GR [1] (setting [4]) and 58.6% on human GR [2].
